Data as given in PubChem BioAssay (NCI).
Several values for one entry are separate records, joined by “and”; a condition that tells them apart may be missing. Equal values may be shown once.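 In this assay, cells in 96-well plates receive the compound at five concentrations for 48 hours. Endpoints are linearly interpolated between the surrounding concentrations. The concentration for 50% growth inhibition is given as GI50. At the TGI there is no net growth.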

Key:
Assay in all cases: NCI tumour cell line growth inhibition, 48 h
CAKI-1 renal = tested on: CAKI-1 renal
HOP-92 NSCLC = tested on: HOP-92 NSCLC
M14 melanoma = tested on: M14 melanoma
RXF 393 renal = tested on: RXF 393 renal
SF-268 CNS = tested on: SF-268 CNS
SF-539 CNS = tested on: SF-539 CNS
KM12 colon = tested on: KM12 colon
NCI-H460 lung = tested on: NCI-H460 lung
SR leukemia = tested on: SR leukemia
PC-3 prostate = tested on: PC-3 prostate

| Structure (SMILES) | TGI (CAKI-1 renal) | TGI (HOP-92 NSCLC) | TGI (M14 melanoma) | TGI (RXF 393 renal) | TGI (SF-268 CNS) | TGI (SF-539 CNS) | TGI (KM12 colon) | TGI (NCI-H460 lung) | TGI (SR leukemia) [µM] | GI50 (CAKI-1 renal) [µM] | GI50 (KM12 colon) [µM] | GI50 (M14 melanoma) [µM] | GI50 (NCI-H460 lung) | GI50 (SF-268 CNS) [µM] | GI50 (SR leukemia) [µM] | GI50 (HOP-92 NSCLC) [µM] | GI50 (PC-3 prostate) [µM] | TGI (PC-3 prostate) | GI50 (RXF 393 renal) [µM] | GI50 (SF-539 CNS) [µM] |
| --- | --- | --- | --- | --- | --- | --- | --- | --- | --- | --- | --- | --- | --- | --- | --- | --- | --- | --- | --- | --- |
| CN(C)CC(/C(Cc1ccccc1)=N\NC(=O)c1ccncc1)c1ccccc1 (stereo not drawn) | > 100 µM | > 100 µM | > 100 µM | > 100 µM | > 100 µM | > 100 µM |  |  |  |  |  |  |  |  |  |  |  |  |  |  |
| N/N=C(\CC1OC(=O)c2ccccc21)c1ccco1 (stereo not drawn) | > 100 µM | > 100 µM | > 100 µM | > 100 µM | > 100 µM | > 100 µM | > 100 µM | > 100 µM |  |  |  |  |  |  |  |  |  |  |  |  |
| CC1(CO)OC1COCc1ccccc1 (stereo not drawn) |  | > 100 µM | > 100 µM | > 100 µM | > 100 µM | > 100 µM | > 100 µM | > 100 µM | > 100 |  |  |  |  |  |  |  |  |  |  |  |
| CC1Cc2c(N)nc(NN)nc2NC1=O (stereo not drawn) |  |  | > 100 µM | > 100 µM |  | > 100 µM | > 100 µM | > 100 µM |  |  |  |  |  |  |  |  |  |  |  |  |
| Nc1nc(Nc2ccc3c(c2)CC[C@@H](N2CCCC2)CC3)nn1-c1cc2c(nn1)-c1ccccc1CCC2 | 2.5 µM |  | 3 µM |  | 3.26 µM |  | 3.71 µM | 2.82 µM | 2.69 | 1.22 | 1.83 | 1.43 | 1.31 µM | 1.44 | 0.441 |  |  |  |  |  |
| O=C(O)c1c2c(c(C(=O)O)c3ccccc13)-c1ccccc1-2 |  | 71.9 µM | > 100 µM | 66.9 µM | > 100 µM | 85.5 µM | > 100 µM |  | > 100 |  |  |  |  |  |  |  |  |  |  |  |
| O=C(c1cc(F)c(Cl)cc1Cl)N1N=C(c2ccccc2)CC1(O)c1ccccc1 (stereo not drawn) | > 100 µM | 29.8 µM |  | 48.1 µM | 53.2 µM | 30.2 µM | 44.8 µM | 36.7 µM |  | 31.7 | 20.1 |  | 19.1 µM | 21.9 |  | 13 | 12.9 | 40.5 µM | 23.6 | 16.5 |
| COc1ccc(C(=O)C(c2ccc(OC)cc2)C2(O)C(=O)Nc3c(C)cc(Cl)cc32)cc1 (stereo not drawn) |  | > 100 µM | > 100 µM | > 100 µM | > 100 µM | > 100 µM | > 100 µM | > 100 µM | 48.2 |  |  |  |  |  |  |  |  |  |  |  |
| O=[N+]([O-])c1ccc(Sc2c3ccccc3nc3ccccc23)cc1 | > 100 µM |  | > 100 µM | > 100 µM | > 100 µM | > 100 µM | > 100 µM | > 100 µM |  |  |  |  |  |  |  |  |  |  |  |  |
| Fc1ccc(Oc2nccc(-c3c(-c4ccc(F)cc4)ncn3C3CCNCC3)n2)cc1 | > 25 µM |  | > 25 µM | > 25 µM | > 25 µM | > 25 µM | > 25 µM | > 25 µM |  | 20.5 | > 25 | > 25 | > 25 µM | > 25 |  |  | > 25 | > 25 µM | > 25 | > 25 |
| N#Cc1ccccc1NC(=O)/C(=N\NC(=O)c1ccncc1)C(c1cnc2ccc([N+](=O)[O-])cc2n1)[N+](=O)[O-] (stereo not drawn) | > 100 µM | > 100 µM | > 100 µM | > 100 µM | > 100 µM | > 100 µM | > 100 µM | > 100 µM |  |  |  |  |  |  |  |  |  | > 100 µM |  |  |
| Cc1cccc(C)c1NC(=O)CCCC(=O)CC(=O)/C=C/c1ccccc1 | > 100 µM | > 100 µM | > 100 µM | > 100 µM | > 100 µM | > 100 µM | > 100 µM | > 100 µM |  |  |  |  |  |  |  |  |  |  |  |  |
| c1ccc(C(=NNc2nc3ccccc3o2)c2ccccn2)nc1 | 7.87 µM and 1.34 µM |  |  | 5.96 µM and 3.95 µM | 22.9 µM and 2.38 µM |  | 17.8 µM and 15 µM | 5.22 µM and 1.5 µM |  | 0.0497 | 0.0681 | 0.0418 | 0.0575 µM and 0.163 µM | 0.0551 |  | 0.0751 | 0.0436 | 26.6 µM and 13.8 µM |  | 0.112 |
| C/C=C(\C)C(=O)N[C@H]1[C@@H](OC(C)=O)C[C@]2(C)C3CC[C@@]4(C)C(CC[C@@H]4C(C)N(C)C)C3CCC2[C@H]1O (stereo partly drawn) | 14 µM | 15.5 µM | 3.72 µM | 14.4 µM | 13.3 µM | 4.97 µM | 15.5 µM | 5.8 µM |  | 3.2 | 4.35 | 2.02 | 2.18 µM | 2.9 |  | 1.04 | 2.88 | 24.2 µM | 1.71 | 1.87 |
| CCOC(=O)/C(=C\c1ccc(OCc2ccccc2)c(OC)c1)C(=O)c1ccccc1 | 64.7 µM |  | 30.5 µM |  |  | 31.2 µM | 41.2 µM |  | > 100 |  |  |  |  |  |  |  |  |  |  |  |
| CCOC(=O)CCCn1c(SC)nc2cc(-c3ccco3)[nH]c2c1=O | 90.4 µM | 65.7 µM | > 100 µM | 30.6 µM | > 100 µM | 53.2 µM | > 100 µM | > 100 µM |  | 25.8 | > 100 | > 100 | > 100 µM | 52.7 |  | 25.6 | > 100 | > 100 µM | 12 | 20.4 |
| O=C(CNC(=O)OCc1ccccc1)Oc1ccccc1 |  | > 100 µM | > 100 µM | > 100 µM | > 100 µM | > 100 µM | > 100 µM | > 100 µM | > 100 |  |  |  |  |  |  |  |  |  |  |  |
| N#CC1=C(N)OC2=C(COc3ccc(F)cc32)C1c1ccc(Cl)cc1 (stereo not drawn) | > 100 µM | > 100 µM | > 100 µM | > 100 µM | > 100 µM | 81.6 µM | > 100 µM | > 100 µM |  | 30.1 | 33.4 | 44.6 | 27.8 µM | 42.8 |  | 30.5 | 32.3 | > 100 µM | > 100 | 29.5 |
| CCOc1cc2c(cnc3c4cc(OC)c(OC)cc4ccc23)cc1OC | > 100 µM |  | > 100 µM |  | > 100 µM | > 100 µM | > 100 µM | > 100 µM |  |  |  |  |  |  |  |  |  |  |  |  |
| COC1/C(=C\C(=O)OC(C)(C)C)c2ccccc2N1C(C)=O (stereo not drawn) | > 100 µM |  | > 100 µM | > 100 µM |  | > 100 µM | > 100 µM | > 100 µM | > 100 |  |  |  |  |  |  |  |  |  |  |  |
| CC(=O)OCC1OC(OC2CC3C(C)(C)C(OC(C)=O)CC[C@]3(C)C3CCC45CC4(CC[C@H]5C(C)CC(O)[C@@H](O)C(C)(C)O)[C@]23C)C(O)C(O)C1O (stereo partly drawn) | 13.4 µM and 17.2 µM | 13.1 µM and 11.7 µM | 13.1 µM and 16.6 µM | 13.9 µM | 14.6 µM and 28.8 µM | 13.5 µM and 18.9 µM | 14.2 µM and 14.1 µM | 16.2 µM and 19.5 µM |  | 6.07 | 4.36 | 4.97 | 6.88 µM | 15.4 |  | 4.05 |  |  |  |  |
